The values that follow come from ChEMBL document CHEMBL1201862, “PubChem BioAssay data set” (2004).

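Following 48 hours of exposure in 96-well plates, responses at five concentrations were used to interpolate endpoints linearly. The concentration for 50% growth inhibition is given as GI50.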 The source made the active and inactive calls. No stated cut-off is given here; in the data, active = GI50 up to about 1.1 µM and inactive = higher. Bounds are passed on as bounds.

Test systems include SNB-75; SNB-19; NCI-H226; HOP-92; SF-295; RPMI-8226; HT-29; U-251; HL-60; M19-MEL; KM12; EKVX; SF-539; NCI-H23; UO-31; SK-MEL-28; SK-MEL-5; SK-MEL-2; Hs-578T; MDA-MB-231.
Holding throughout (assay): inhibition of tumour cell growth, NCI panel, 48 h

As to `CC1CCCc2c(CC3CC(=O)NC(=O)C3)n[nH]c21` (stereo not given), the GI50 with SNB-75, in the assay with SNB-19, with NCI-H226, with HOP-92, with SF-295 and with RPMI-8226 was > 100 µM (inactive) throughout. The GI50 in the assay on HT-29, in the assay on U-251, in the assay with HL-60, in the assay with M19-MEL, in the assay on KM12 and in the assay on EKVX was > 100 µM (inactive) throughout. Also, the GI50 in the assay on SF-539, with NCI-H23, in the assay with UO-31 and in the assay with SK-MEL-28 was > 100 µM (inactive) each time.

For the compound `CC(C)(C)c1cc(C2c3cc4c(cc3OC(O)(CO)C2C(=O)O)OCO4)cc(C(C)(C)C)c1O.CC(C)(C)c1cc(C2c3cc4c(cc3OC3(O)COC(=O)C23)OCO4)cc(C(C)(C)C)c1O` (stereo not given), the GI50 was 10.1 µM (inactive) in the assay on SNB-75; 12.9 µM (inactive) in the assay on SNB-19; 9.82 µM (inactive) in the assay on HOP-92; 15.7 µM (inactive) in the assay on SF-295; 9.48 µM (inactive) in the assay on SK-MEL-5; 4.37 µM (inactive) in the assay with RPMI-8226. The GI50 was 13.5 µM (inactive) in the assay on HT-29; 14.5 µM (inactive) in the assay with U-251; 7.73 µM (inactive) in the assay on HL-60; 13.8 µM (inactive) with M19-MEL; 22.5 µM (inactive) with EKVX; 12.5 µM (inactive) in the assay with SF-539. In addition, the GI50 in the assay on NCI-H23 was 9.55 µM (inactive); with UO-31 it was 13.6 µM (inactive); in the assay with SK-MEL-28 it was 11.3 µM (inactive).

On to `COC(=O)C1=C(OC(=O)/C(=C/c2ccc(Cl)cc2)c2ccc(Cl)cc2)C(C(=O)OC)[C@@]2(O)[C@@H](C(=O)OC)[C@H](C)C[C@@H]1[C@@H]2C(=O)OC` (stereo not given in full), for which the GI50 in the assay on SNB-75 was > 56 µM (inactive); with SK-MEL-2, > 92.7 µM (inactive); in the assay with Hs-578T, 39.4 µM (inactive); in the assay with SNB-19, 16.4 µM (inactive); with NCI-H226, > 100 µM (inactive); in the assay with HOP-92 it was 6.67 µM (inactive). Moreover, the GI50 in the assay with MDA-MB-231 is > 71.9 µM (inactive); in the assay with SF-295, 3.22 µM (inactive); in the assay with SK-MEL-5, > 100 µM (inactive); with RPMI-8226 it was 18 µM (inactive); in the assay with HT-29, > 61 µM (inactive); with U-251 it was 17.8 µM (inactive). The GI50 was > 100 µM (inactive) in the assay on HL-60; 11 µM (inactive) with KM12; 10.6 µM (inactive) in the assay on EKVX; > 100 µM (inactive) in the assay on SF-539; 25.2 µM (inactive) in the assay with NCI-H23; > 100 µM (inactive) with UO-31. Moreover, the GI50 in the assay on SK-MEL-28 was > 100 µM (inactive).

Turning to `CCCCNc1nc2ccccc2c2c1ncn2CC(C)C`, the GI50 in the assay with SNB-75, with SK-MEL-2, with Hs-578T, with SNB-19, with NCI-H226 and in the assay on HOP-92 was > 100 µM (inactive) throughout. The GI50 with MDA-MB-231, with SF-295, in the assay with SK-MEL-5, in the assay with RPMI-8226, in the assay with HT-29 and in the assay on U-251 was > 100 µM (inactive) each time. In addition, the GI50 in the assay on HL-60, in the assay with KM12, in the assay on EKVX, with SF-539, in the assay with NCI-H23 and in the assay with UO-31 was > 100 µM (inactive) in each case. Moreover, the GI50 in the assay on SK-MEL-28 was > 100 µM (inactive).

Regarding `Cc1oc2c(C)c3oc(=O)cc(C)c3cc2c1CN`, the GI50 in the assay on SNB-75 was 33.9 µM (inactive); with SK-MEL-2, 46.1 µM (inactive); with SNB-19, 41.5 µM (inactive); with NCI-H226, 34.4 µM (inactive); with SF-295, 38 µM (inactive); in the assay with RPMI-8226, 39.4 µM (inactive). For the same compound, the GI50 is 31.9 µM (inactive) in the assay with HT-29; 23 µM (inactive) in the assay with U-251; 39 µM (inactive) in the assay on HL-60; 31 µM (inactive) in the assay on M19-MEL; 49.5 µM (inactive) in the assay on KM12; 42.6 µM (inactive) with EKVX. The GI50 is 40.9 µM (inactive) in the assay on SF-539, 45.8 µM (inactive) with NCI-H23, 30.1 µM (inactive) in the assay on UO-31 and 71 µM (inactive) with SK-MEL-28.

On to `O=C1C(=O)N(C(=O)c2ccc(Cl)c(Cl)c2)c2ccc(Cl)cc21`, for which the GI50 is 31.8 µM (inactive) in the assay with SNB-75; > 100 µM (inactive) in the assay on SNB-19; > 100 µM (inactive) in the assay on NCI-H226; > 100 µM (inactive) with SF-295; > 100 µM (inactive) with SK-MEL-5; 35.6 µM (inactive) in the assay with RPMI-8226. Moreover, the GI50 is > 100 µM (inactive) in the assay with HT-29; > 100 µM (inactive) in the assay with U-251; 20.3 µM (inactive) in the assay on HL-60; 18.8 µM (inactive) in the assay with M19-MEL; > 100 µM (inactive) with KM12; 74 µM (inactive) with EKVX. The GI50 with SF-539, in the assay on NCI-H23, in the assay with UO-31 and in the assay with SK-MEL-28 was > 100 µM (inactive) in each case.

On to `COc1cc(-c2ccccc2)c(OC)cc1CCl`, for which the GI50 in the assay on SNB-75, in the assay with SK-MEL-2, in the assay with SNB-19, in the assay on NCI-H226, in the assay on SF-295 and with SK-MEL-5 was > 100 µM (inactive) each time. The GI50 with RPMI-8226, with HT-29, in the assay on U-251, in the assay with HL-60, with M19-MEL and in the assay with KM12 was > 100 µM (inactive) each time. In addition, the GI50 in the assay on EKVX, in the assay with SF-539, in the assay with NCI-H23 and in the assay with UO-31 was > 100 µM (inactive) each time.

On to `COC1CC(C)C(OC)c2cc(O)cc(c2O)NC(=O)/C(C)=C/C=C\C(C)C(OC(N)=O)/C(C)=C\C(C)C1OC` (stereo not given), for which the GI50 is 0.776 µM (active) with SNB-75; 1.69 µM (inactive) in the assay on SK-MEL-2; 3.78 µM (inactive) in the assay with SNB-19; 7.35 µM (inactive) in the assay on NCI-H226; 0.347 µM (active) in the assay on HOP-92; 1.24 µM (inactive) with SF-295. Further, the GI50 is 0.268 µM (active) in the assay with SK-MEL-5; 0.152 µM (active) in the assay with RPMI-8226; 0.139 µM (active) in the assay with HT-29; 0.497 µM (active) in the assay with U-251; 0.437 µM (active) in the assay on M19-MEL; 0.255 µM (active) in the assay with KM12. In addition, the GI50 was 10.5 µM (inactive) with EKVX, 0.417 µM (active) in the assay on SF-539, 7.11 µM (inactive) in the assay on UO-31 and 0.336 µM (active) in the assay with SK-MEL-28.

Take `O=[PH](O)c1cc2ccccc2c2ccccc12`: the GI50 in the assay on SNB-75, in the assay on SNB-19, with NCI-H226, in the assay with SF-295, with SK-MEL-5 and in the assay on RPMI-8226 was > 100 µM (inactive) in each case. For the same compound, the GI50 in the assay on HT-29, with U-251, in the assay on HL-60, in the assay on M19-MEL, in the assay on KM12 and with EKVX was > 100 µM (inactive) in each case. For the same compound, the GI50 in the assay with SF-539, with NCI-H23 and in the assay with SK-MEL-28 was > 100 µM (inactive) in each case.

As to `CC(=O)OC(CC1(C)C(C)CCC23COC(=O)C2=CCCC31)c1ccoc1` (stereo not given), the GI50 in the assay on SNB-75 was 23.3 µM (inactive); with SK-MEL-2, 23.4 µM (inactive); in the assay with SNB-19, 25.4 µM (inactive); in the assay on NCI-H226, 16.7 µM (inactive); in the assay with HOP-92 it was 26.2 µM (inactive); with SF-295, 28.7 µM (inactive). In addition, the GI50 was 19.5 µM (inactive) in the assay with SK-MEL-5; 29.6 µM (inactive) in the assay on HT-29; 15.8 µM (inactive) in the assay on U-251; 33.8 µM (inactive) in the assay with M19-MEL; 26.2 µM (inactive) in the assay on KM12; 30.5 µM (inactive) in the assay on EKVX. Besides, the GI50 was 25.9 µM (inactive) in the assay on SF-539, 19 µM (inactive) with NCI-H23, 19.1 µM (inactive) with UO-31 and 17.7 µM (inactive) in the assay with SK-MEL-28.

For the compound `O=C(Oc1ccccn1)c1cc2cc(CCl)ccc2oc1=O`, the GI50 is 24.8 µM (inactive) in the assay on SNB-75; 25.9 µM (inactive) in the assay on SK-MEL-2; 21.7 µM (inactive) with Hs-578T; 27 µM (inactive) in the assay with SNB-19; 71.1 µM (inactive) with NCI-H226; 20.7 µM (inactive) with HOP-92. Also, the GI50 in the assay on MDA-MB-231 was 19.7 µM (inactive); in the assay with SF-295 it was 68.1 µM (inactive); with SK-MEL-5, 51.8 µM (inactive); with RPMI-8226 it was 35.6 µM (inactive); in the assay with HT-29, 76.7 µM (inactive); in the assay on U-251 it was 18.5 µM (inactive). Moreover, the GI50 was 41.8 µM (inactive) with HL-60; 66.8 µM (inactive) with KM12; 36.8 µM (inactive) in the assay on EKVX; 50.5 µM (inactive) in the assay on SF-539; 21.6 µM (inactive) with NCI-H23; 33.7 µM (inactive) in the assay with UO-31. Also, the GI50 in the assay with SK-MEL-28 was 49 µM (inactive).

For the compound `C#C[C@]1(O)CC[C@H]2[C@@H]3CCc4cc(O)ccc4[C@H]3CC[C@@]21C` [ETHINYL ESTRADIOL], the GI50 is 12.6 µM (inactive) in the assay with SNB-75; 24.5 µM (inactive) with SK-MEL-2; 68.5 µM (inactive) in the assay on SNB-19; 20.3 µM (inactive) with NCI-H226; 22.9 µM (inactive) with HOP-92; 19 µM (inactive) in the assay on SF-295. In addition, the GI50 was 11.1 µM (inactive) in the assay with SK-MEL-5; 13 µM (inactive) in the assay on HT-29; 7.8 µM (inactive) in the assay with U-251; 21.7 µM (inactive) with HL-60; 17.1 µM (inactive) in the assay with M19-MEL; 13.6 µM (inactive) in the assay on KM12. For the same compound, the GI50 in the assay with EKVX is 11.7 µM (inactive); with SF-539, 17.6 µM (inactive); in the assay on NCI-H23 it was 23.7 µM (inactive); in the assay on UO-31, > 10 µM (inactive); with SK-MEL-28, 65.2 µM (inactive).
